What all share (format): biochemical
Test [1] can be described thus: ABTS radical cation scavenging (decolorization) test. As to conditions: 734 nm, 30 min. Here is the method: (§1) The in vitro antioxidant ability of the compounds synthesized in this work was evaluated using three different assays, including (i) the ABTS radical cation reduction-decolorization test, which uses the technique of Khan et al. consisting of the reduction of the cation radical by an antioxidant through the discoloration measured by absorption at the wavelength of 734 nm; (ii) interaction with the stable free radical DPPH, based on Bassene’s method, in which the scavenging of DPPH radicals is carried out by a colorimetric method consisting of the reduction of the DPPH radical, determined by its absorption at a wavelength of 517 nm; and (iii) the FRAP test according to the protocol of Path Canada, based on the ability of a substance to reduce Fe^3+ ions to Fe^2+ ions, which, in the presence of 1,10-phenanthroline, form a red-orange complex whose optical density can be measured at 505 nm.
The modified technique by Khan et al. was used to scavenge ABTS^+• cation radicals through a discoloration test. In this test, potassium permanganate (KMnO4) or potassium persulphate (K2S2O8) reacts with ABTS to generate a blue-green ABTS^+• radical. Antioxidants reduce this radical, leading to a measurable colour change at 734 nm, proportional to the antioxidant concentration. The antioxidant capacity is assessed by comparing the intensity reduction of ABTS colour with that of a reference antioxidant, gallic acid. Stock and dilute solutions of synthetic compounds were prepared as detailed in §3.2.5.1. Diluted concentrations were (50, 25, 12.5, 6.25, 3.125, 1.5625 and 0.78125)/Mi in mM. The ABTS solution was obtained by mixing ABTS with K2S2O8, producing an intense blue colour. The ABTS^+• radical was generated by combining equal volumes of a 4.9 mM K2S2O8 solution and a 7 mM ABTS stock solution, stored in the dark at room temperature for 15 h before use. The 7 mM ABTS stock was then diluted 20 times with distilled water. A total of 25 µl of each dilution was added to wells along with 75 µl of 0.175 mM ABTS+ solution. After 30 min of incubation in the dark at room temperature, optical densities were measured at 734 nm. Negative controls contained the ABTS reagent without synthesized compounds, while positive controls used gallic acid at the same final concentrations as the compounds. Compounds were also tested alone to assess fluorescence. The reduction of ABTS results in a blue discoloration, with lower absorbance indicating higher antioxidant activity.
(§2) The percentages of scavenging or 50% reduction were calculated using gallic acid as a standard for 100% reduction. The concentration of radical scavengers needed to neutralize 50% of free radicals, referred to as SC50, was determined using GraphPad Prism 8.0.1 software (244).

Test [2] in a line: DPPH radical scavenging test. Conditions: 517 nm, 30 min. Here is the method: as §1
The DPPH radical trapping protocol is based on Bassene’s method, modified for colorimetric analysis. DPPH is a stable purple organic nitrogen radical that absorbs light at 517 nm. When an anti-free radical agent is present, DPPH is reduced to a stable yellow compound, indicated by a loss of colour between 470 and 517 nm. A 0.02% DPPH solution was made with ethanol and stored in a sealed jar in the dark. Stock solutions of the synthesized compounds were prepared by dissolving 100 mg of each in 1 ml of DMSO, and the final concentration of DMSO concentration in the first well was 0.5%. These stocks were then diluted to achieve concentrations (500, 250, 125, 62.5, 31.25, 15.625 and 7.8125)/Mi in mM (Mi: molecular weight of each synthetic compound). Each dilution (25 µl) was put to the wells and 75 µl of the DPPH solution (0.02%) were added. Optical densities were measured at 517 nm after 30 min of incubation in the dark. The negative control used DPPH alone, while the positive control used gallic acid treated with solutions of the synthesized compounds at final concentrations (50, 25, 12.5, 6.25, 3.125, 1.5625 and 0.78125)/Mi in mM. Synthesized compounds were also tested alone to assess fluorescence.
Assays were performed in duplicate, and results were averaged. Percentage inhibition (PI), reflecting the antioxidant activity related to the DPPH˙ radical scavenging effect, was calculated using the following formula:
(PI)=Acontrol−Atest/Acontrol×100,
where Acontrol = absorbance of the control sample and Atest = absorbance of the tested sample.
as §2
(In general: Loss of DPPH colour is used to gauge radical scavenging.)

Test [3] can be described thus: Ferric reducing antioxidant power (FRAP) test. Conditions: 505 nm. Here is the method: as §1
The Fe^3+ reduction test followed Path Canada’s protocol with some modifications, assessing the reduction of Fe^3+ ions to Fe^2+ ions, which form a red-orange complex with 1,10-phenanthroline, measurable at 505 nm. The colour intensity correlates with the amount of Fe^3+ reduced. Four solutions were prepared: 1.2 mg ml^−1 of Fe^3+ solution (1.2 mg FeCl3 in 1 ml distilled H2O), 0.2% ortho-phenanthroline solution (200 mg powder in 100 ml ethanol), 2 mg ml^−1 of gallic acid solution (2 mg gallic acid in 1 ml distilled H2O) as a positive control, stock and dilute solutions of the synthesized compounds (see §3.2.5.1). In a 96-well microplate, 180 µl distilled H2O was added to the first column and 100 µl to others for dilution. Each compound solution (20 µl at 10 mg ml^−1) was mixed with 25 µl Fe^3+ solution and incubated for 15 min in the dark at room temperature. Afterwards, 50 µl ortho-phenanthroline solution was added, followed by another 15 min incubation. Optical density was measured at 505 nm using a TECAN M200 plate reader. The positive control was treated similarly to the DPPH and ABTS assays.
as §2

[4] abbreviates: first replicate, read-out: ABTS SC50(1).
Where [5] appears, read: second replicate, read-out: ABTS SC50(2).
Where [6] appears, read: first replicate, read-out: DPPH SC50(1).
The mark [7] stands for this setting: mean of duplicate, read-out: DPPH mean SC50.
[8] abbreviates: second replicate, read-out: DPPH SC50(2).
Where [9] appears, read: first replicate, read-out: FRAP SC50(1).
Setting [10] is: mean of duplicate, read-out: FRAP mean SC50.
The mark [11] stands for this setting: second replicate, read-out: FRAP SC50(2).

Consider `CCCCCCCC/C=C\CCCCCCCC(=O)OCCOC(=O)C(C)c1ccc(CC(C)C)cc1` (centres unmarked) [Compound 5b, 2-((2-(4-isobutylphenyl)propanoyl)oxy)ethyl oleate], for which the EC50 in test [1] (setting [4]) was determined as 2150 µM; in test [1] (mean of duplicate, read-out: ABTS mean SC50), 2130 µM; in test [1] (setting [5]), 2110 µM; in test [2] (setting [6]), 6440 µM; in test [2] (setting [7]), 6480 µM; in test [2] (setting [8]), 6520 µM. The EC50 is 6160 µM in test [3] (setting [9]), 6180 µM in test [3] (setting [10]) and 6200 µM in test [3] (setting [11]).

As for `O=C(O)c1cc(O)c(O)c(O)c1` [gallic acid, reference compound], the EC50 in test [1] (setting [4]) is 38 µM; in test [1] (setting [5]), 38 µM; in test [2] (setting [6]) it was 15 µM; in test [2] (setting [7]), 15 µM; in test [2] (setting [8]), 15 µM; in test [3] (setting [9]), 59 µM. Also, the EC50 in test [3] (setting [10]) is 61 µM; in test [3] (setting [11]), 62 µM.

Source of the values: PMC12074795, “Synthesis and biological evaluation of esterified anti-inflammatory drugs with ethylene glycol linkers: cytotoxicity, anti-inflammatory and antioxidant properties” (Royal Society Open Science, 2025).
